Data from patent EP1030842B1, “METALLOPROTEINASE INHIBITORS” (BRITISH BIOTECH PHARMACEUTICALS LIMITED, priority 1997, dated 1999).
Read-outs that look alike come from different tables or passages of the source.

Assays:
[1] = Blood concentration in minipump-dosed rats of the tendinitis study (fluorometric assay); type: in vivo; details: rats of the tendinitis tests; blood samples days 3, 10 and 16 or 17 post implantation
Method: Blood samples were obtained on days 3 and 10 post minipump implantation from rats lightly anaesthetised with halothane via the tail vein. Blood samples (0.5ml) were placed into tubes containing 3.0ml methanol to extract free and bound compound. Blood concentration of Compound A or Compound B was determined by a fluorometric assay using the coumarin peptide substrate Mca-Pro-Leu-Gly-Leu-Dpa-Ala-Arg-NH2 (Mca = (7-methoxycoumarin-4-yl)acetyl, Dpa = N-3-(2,4-dinitrophenyl)-L-2,3-diaminopropyl) (see Knight et. al., FEBS Lett. 1992, 296, 263-266). On either day 16 or 17 post implantation, studies were ended, rats were terminally anaesthetised with halothane and blood samples (0.5ml) were taken by cardiac puncture and the blood concentration of Compound A or Compound B determined.

[2] = Propensity to induce observable signs of tendinitis in rats (observation based score); type: in vivo, Male Lewis rats; details: 5µl/hr; for signs of tendinitis: observed daily for 16 days, mean scores >2 significant
Method: The compound of the invention was tested for its propensity to induce observable signs of tendinitis in rats. The tendinitic effect in rats of the compound of the invention ("Compound A") was compared with that of a close structural isomer, namely N^1-[2,2-dimethyl-1S-(pyridin-3-ylcarbamoyl)-propyl]-N^4-hydroxy-2R-isobutyl-3S-hydroxy-succinamide ("Compound B").
Male Lewis rats were used. In each study up to 30 rats were weighed and randomised on bodyweight for group allocation, n=6/group. In each study, a corresponding vehicle group was run to compare with each treatment group.
Compound A was formulated as its mesylate salt, whilst Compound B was formulated as the free base. For Compound A @ 15mg/ml the vehicle was 50% DMSO, 37% 0.1M methane sulphonic acid, 13% sterile water; and @ 30mg/ml the vehicle was 50% DMSO, 37% 0.2M methane sulphonic acid, 13% sterile water. For Compound B @ 15mg/ml the vehicle was 50% DMSO/water.
Alzet (trade mark) osmotic minipumps (2ML2, 14 day, 5µl/hr from Alza Corp., Palo Alto CA 94303), were weighed empty and full to be sure of correct fill volume. Prior to implantation, filled pumps were placed in an incubator at 37°C. All rats were anaesthetized with halothane. Once anaesthetised, the scruff was shaved and disinfected. A longitudinal skin incision, approx 2 cm long, was made on the prepared site and a subcutaneous pocket was made under the skin using a pair of haemostatic forceps. Minipumps were inserted with the exit of the pump facing away from the wound. The incision wound was closed with sutures, and the area around the wound was re-disinfected. Immediately post-operatively, all the rats received analgesic, (Temgesic -trade mark - Reckitt and Colman) 0.1mg/kg s.c. in the flank. On recovery from anaesthesia, the animals were returned to cages containing dry bedding to ensure the wound remained dust free prior to healing. On the day followng surgery, all rats were placed back on standard bedding and housed in groups of 3 to enable more accurate observation of signs of tendinitis.
Following the implantation of mini-pumps, rats were weighed and monitored for the possible onset of tendinitis. Onset and severity of tendinitis was measured by an observation based scoring system (see below). The rats were observed daily for 16 days. Mean scores >2 were considered significant.

B16 mouse melanoma cells = assay: B16 mouse melanoma model; type: in vivo, C57/BL6J mice
Description: In this model C57/BL6J mice are inoculated subcutaneously with 10^5 B16 mouse melanoma cells. The tumours are allowed to grow over 18 days and the tumour weight calculated by calliper measurements and the following formula: weight (mg)- length (mm) x width (mm) ö 4. A group of mice (n=19) received the compound, administered via a mini-osmotic pump implanted subcutaneously on the opposite flank to the B16 tumour. The pump was implanted the day before tumour inoculation and the compound was delivered at a dose of 360 µg/day. A control group (n=17) received the appropriate volume of vehicle from identical implanted pumps.

[3] = Rat experimental autoimmune neuritis (EAN) model of GBS; type: in vivo
Method: The effect of the compound of the invention was tested in an animal model of GBS Experimental autoimmune neuritis (EAN) is a T cell mediated, autoimmune disorder of the peripheral nervous system. […] EAN can be induced when animals are injected with myelin from peripheral nerves, or with protein components of the myelin such as Protein 0, in adjuvant. EAN lesions occur in the spinal roots and peripheral nerves and are characterised by perivascular mononuclear cell infiltration, demyelination of axons and nerve conduction deficit.
The compound of the invention was tested in a rat EAN model where disease symptoms were induced by injection of peripheral nerve myelin in adjuvant. […]

stromelysin-1 = stromelysin-1 (Homo sapiens, UniProt P08254); assay: biochemical
Chain of stromelysin-1 (P08254 100-477, species assumed): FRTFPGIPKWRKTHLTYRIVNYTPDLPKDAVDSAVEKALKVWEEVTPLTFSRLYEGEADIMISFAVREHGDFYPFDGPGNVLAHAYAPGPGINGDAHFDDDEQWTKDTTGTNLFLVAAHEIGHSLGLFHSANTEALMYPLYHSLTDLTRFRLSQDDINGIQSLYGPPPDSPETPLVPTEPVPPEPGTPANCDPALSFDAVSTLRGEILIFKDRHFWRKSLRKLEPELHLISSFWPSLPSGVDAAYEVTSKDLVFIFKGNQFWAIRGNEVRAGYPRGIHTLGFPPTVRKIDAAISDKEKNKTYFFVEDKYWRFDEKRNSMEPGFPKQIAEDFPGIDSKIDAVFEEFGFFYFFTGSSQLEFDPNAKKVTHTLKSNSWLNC
Method: The potency of the compound of the invention as inhibitors of stromelysin-1 was determined by the procedure of Cawston et al, (Biochem. J., 195, 159-165, 1981), whereby a 1mM solution of the compound being tested, or a dilution thereof, was incubated at 37° for 16 hours with stromelysin and ^14C acetylate casein (buffered with 25mM Hepes, pH 7.5 containing 5mM CaCl2, 0.05% Brij 35 and 0.02% NaN3). The casein was acetylated ^14C casein prepared by the method of Cawston et al (ibid).

[4] = Delayed type hypersensitivity (DTH) model of MS; type: in vivo, Male Lewis rats; details: 30mg/kg orally twice daily, mean ± standard error of the mean
[5] = Inhibitory activity in blood after oral administration to healthy human volunteers; type: in vivo
72 kDa gelatinase = biological target: T1, 72 kDa gelatinase (Homo sapiens, UniProt P08253); assay: 72 kDa gelatinase inhibition (14C gelatin, based on Sellers et al); type: biochemical; details: 16 hours at 37°C
T1 construct: endogenous in cells; host or cells: RPMI-7951 cells
T1 sequence (P08253 110-660): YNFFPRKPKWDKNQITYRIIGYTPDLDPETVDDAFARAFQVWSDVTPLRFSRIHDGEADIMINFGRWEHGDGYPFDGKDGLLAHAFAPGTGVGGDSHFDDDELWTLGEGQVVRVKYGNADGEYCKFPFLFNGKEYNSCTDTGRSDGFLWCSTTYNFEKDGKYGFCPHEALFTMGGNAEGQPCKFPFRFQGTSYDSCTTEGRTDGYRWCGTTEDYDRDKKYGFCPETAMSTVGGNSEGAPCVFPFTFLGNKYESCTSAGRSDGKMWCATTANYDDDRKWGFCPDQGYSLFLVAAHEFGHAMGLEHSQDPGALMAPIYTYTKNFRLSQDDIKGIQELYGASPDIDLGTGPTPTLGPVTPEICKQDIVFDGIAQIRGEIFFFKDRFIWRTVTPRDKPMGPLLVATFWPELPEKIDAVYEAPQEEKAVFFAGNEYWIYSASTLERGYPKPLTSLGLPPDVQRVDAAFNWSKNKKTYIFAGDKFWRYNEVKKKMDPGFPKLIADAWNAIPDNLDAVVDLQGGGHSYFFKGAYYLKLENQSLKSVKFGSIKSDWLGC
Method: 72 kDa gelatinase, derived from RPMI-7951 cells was purified by gelatin-agarose chromatography. The enzyme was activated by incubation with aminophenyl mercuric acetate and approximately 0.05 units was incubated with 50µg [^14C]-radiolabelled gelatin in an appropriate buffer for 16 hours at 37'C. At the end of the incubation 50µg bovine serum albumin, together with trichloroacetic acid (final concentration 16%) were added to stop the reaction and to precipitate any undegraded substrate. The reaction tubes were placed on ice for 15 minutes before centrifugation at 10,000g for 15 minutes to sediment the precipitated substrate. A 200µl aliquot of the reaction supernatant was removed and the radioactivity determined by liquid scintillation counting. The effect of the inhibitors was determined by reference to a dose response curve. The IC50 (the concentration of inhibitor required to cause a 50% decrease in enzyme activity) was obtained by fitting a curve to the data and computing the concentration of inhibitor required to achieve 50% inhibition of the enzyme. For each IC50 determination, the effect on gelatinase activity of at least 8 concentrations of the inhibitor were examined. The inhibitors were dissolved and diluted in DMSO.

MDA-435 cells = details: study ended day 32
Method: In this model, animals were inoculated with MDA-435 cells (10^6 cells/mouse), the tumours allowed to grow for four days and then the animals were randomised by tumour weight into three treatment groups (n=15 per group). Mini-pumps were surgically implanted on day 5 containing either vehicle or test compound at 15 mg/ml or 60 mg/ml (delivering 180 or 720 µg/mouse/day respectively). The pumps were replaced on day 19 and the study ended on day 32.

interstitial collagenase = interstitial collagenase (Homo sapiens, UniProt P03956); assay: biochemical
Chain of interstitial collagenase (P03956 100-469, species assumed): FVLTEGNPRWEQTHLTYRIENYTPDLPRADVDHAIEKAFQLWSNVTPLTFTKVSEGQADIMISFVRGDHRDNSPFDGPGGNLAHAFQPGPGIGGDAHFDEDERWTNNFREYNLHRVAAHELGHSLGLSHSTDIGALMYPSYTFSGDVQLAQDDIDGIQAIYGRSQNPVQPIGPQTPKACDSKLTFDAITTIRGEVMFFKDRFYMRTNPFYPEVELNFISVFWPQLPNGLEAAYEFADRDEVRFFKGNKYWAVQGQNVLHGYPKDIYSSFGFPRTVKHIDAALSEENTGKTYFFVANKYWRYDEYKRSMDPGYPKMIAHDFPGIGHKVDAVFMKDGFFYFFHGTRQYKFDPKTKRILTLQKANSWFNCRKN
Method: The potency of the compound of the invention as inhibitors of interstitial collagenase was determined by the procedure of Cawston and Barrett, (Anal. Biochem., 99, 340-345, 1979), whereby a 1mM solution of the compound being tested, or a dilution thereof, was incubated at 37° for 16 hours with collagen and collagenase (buffered with 25mM Hepes, pH 7.5 containing 5mM CaCl2, 0.05% Brij 35 and 0.02% NaN3). The collagen was acetylated ^14C collagen prepared by the method of Cawston and Murphy, (Methods in Enzymology, 80, 711, 1981), hereby incorporated by reference. The samples were centrifuged to sediment undigested collagen, and an aliquot of the radioactive supernatant removed for assay on a scintillation counter as a measure of hydrolysis.

[6] = Inhibitory activity in blood after oral administration to marmosets; type: in vivo
[7] = Blood concentration over time after gavage, by collagenase inhibitory activity of blood extracts; type: in vivo; details: male rats
Method: The concentration over time of compound of the invention in the blood of laboratory animals following administration of the test compounds was measured. The compound was administered by gavage to 6 male rats (300g) per treatment group. Blood samples were removed by tail venepuncture at 0.5, 1.0, 2.0, 6.0 and 24 hours post administration. 0.4 ml of blood was placed into 4.5ml tubes containing 0.1ml acid citrate dextrose (ACD) as anti-coagulant. For extraction, 3ml methanol was added and the precipitated blood pelletted by centrifugation (30 min at 3000 rpm). A 2ml aliquot of supernatant was removed and concentrated by lyophilisation. The extract was redissolved in 200µl DMSO and a 10µl aliquot assayed for collagenase inhibitory activity. The inhibitory activity in the extracts was determined using the collagenase assay described in Biological Example A above, and the concentration of inhibitor (that is drug plus any active metabolites) obtained by comparison with standard curves. Results are expressed as peak concentration in ng/ml, as area under the curve (AUC) in ng/ml x hours, over 0.5-24 hours, and as AUC in number of IC50's x hours.

[8] = 15mg/ml in osmotic minipump, Compound A as mesylate salt, Compound B as free base

CC(C)C[C@@H](C(=O)N[C@H](C(=O)Nc1cccnc1)C(C)(C)C)[C@H](O)C(=O)NO [Compound B, N^1-[2,2-dimethyl-1S-(pyridin-3-ylcarbamoyl)-propyl]-N^4-hydroxy-2R-isobutyl-3S-hydroxy-succinamide]
plasma exposure from the minipumps [1]: receiving plasma exposure | signs of tendinitis [2, 8]: significant signs from day 8 onwards | mean scores (tendinitis) ([2]; day 8, 15mg/ml in osmotic minipump): > 2 | mean scores (tendinitis) ([2]; days 15 and 16, 15mg/ml in osmotic minipump): about 6

CO[C@H](C(=O)NO)[C@@H](CC(C)C)C(=O)N[C@H](C(=O)Nc1ccccn1)C(C)(C)C [compound of the invention, N^1-[2,2-Dimethyl-1S-(pyridin-2-ylcarbamoyl)-propyl]-N^4-hydroxy-2R-isobutyl-3S-methoxy-succinamide]
weight of the compound-treated tumours (B16 mouse melanoma cells; day 18, 360 µg/day via subcutaneous mini-osmotic pump, control 1145 ± 97 mg): 774 ± 50 mg | reduction of tumour weight (B16 mouse melanoma cells; day 18, 360 µg/day, versus vehicle control, p<0.005): 32% | plasma level (B16 mouse melanoma cells; end of the study, 360 µg/day via mini-osmotic pump): 26.8 ± 3.2 ng/mL | clinical symptoms ([3]; given therapeutically day 8-15, 15 or 30 mg/ml at 10 µl/hour, 14 and 28 mg/kg/day): reduces clinical symptoms in a dose dependent manner | development of clinical symptoms ([3]; treatment day 1-15, minipumps 15 or 30 mg/ml at 5 µl/hour, 7 and 14 mg/kg/day): significantly reduces the development of clinical symptoms in a dose-dependent manner | IC50 (stromelysin-1): 30 nM | Blood brain barrier leakage ([4]; day 5 to day 15 after second BCG injection, p<0.05 vs vehicle): 2.042±0.487 mm^2 | T cell infiltration ([4]; OX-22 positive cells, p<0.0001 vs vehicle): 341.2±21.9 cells/mm^2 | Demyelination ([4]; not statistically significant): 0.758±0.227 mm^2 | MHC class II expression ([4]; not statistically significant): 1.318±0.300 mm^2 | inhibitory activity in the blood [5]: significant levels of inhibitory activity have been detected | IC50 (72 kDa gelatinase): 70 nM | plasma exposure from the minipumps [1]: receiving plasma exposure | inhibition of tumour growth (MDA-435 cells; 180 µg/mouse/day (15 mg/ml mini-pump)): 19% | inhibition of tumour growth (MDA-435 cells; 720 µg/mouse per day (60 mg/ml mini-pump), p<0.005): 33% | IC50 (interstitial collagenase): 10 nM | signs of tendinitis [2, 8]: no significant signs of tendinitis | signs of tendinitis ([2]; 30mg/ml in osmotic minipump, mesylate salt): no significant signs of tendinitis | inhibitory activity in the blood [6]: significant levels of inhibitory activity have been detected | AUC (0.5 - 24h) ([7]; AUC in number of IC50's x hours): 674 n IC50's x h | AUC (0.5 - 24h) ([7]; drug plus any active metabolites in blood): 2966 ng/ml x h
